Experimental data: US12667559B2, “Dihydronaphthyridinone compound, and preparation method therefor and medical use thereof” (GENFLEET THERAPEUTICS (SHANGHAI) INC., priority 2020, dated 2026)

Experiments:
[1] = tested on: U937 cells; assay: Inhibitory activity against TNF-α induced programmed cell necrosis (U937 cells, CellTiter-Glo); format: cell-based, human; conditions: Homo sapiens, U-937, 48 h, U937 cells, human TNF-α and Q-VD-Oph induced necrosis, 48 hours, survival rate; read-out: U937 IC50
[2] = molecular target: T1, RIPK1 (Homo sapiens, UniProt Q13546); assay: Inhibitory activity against RIPK1 enzyme (33P-ATP, MBP substrate); format: biochemical; conditions: 36 nM RIPK1, 0.33 mg/ml MBP, 155 μM 33P-ATP, 2 hours, room temperature
T1 construct: purchased Eurofins 16-022
T1 sequence (Q13546 1-671): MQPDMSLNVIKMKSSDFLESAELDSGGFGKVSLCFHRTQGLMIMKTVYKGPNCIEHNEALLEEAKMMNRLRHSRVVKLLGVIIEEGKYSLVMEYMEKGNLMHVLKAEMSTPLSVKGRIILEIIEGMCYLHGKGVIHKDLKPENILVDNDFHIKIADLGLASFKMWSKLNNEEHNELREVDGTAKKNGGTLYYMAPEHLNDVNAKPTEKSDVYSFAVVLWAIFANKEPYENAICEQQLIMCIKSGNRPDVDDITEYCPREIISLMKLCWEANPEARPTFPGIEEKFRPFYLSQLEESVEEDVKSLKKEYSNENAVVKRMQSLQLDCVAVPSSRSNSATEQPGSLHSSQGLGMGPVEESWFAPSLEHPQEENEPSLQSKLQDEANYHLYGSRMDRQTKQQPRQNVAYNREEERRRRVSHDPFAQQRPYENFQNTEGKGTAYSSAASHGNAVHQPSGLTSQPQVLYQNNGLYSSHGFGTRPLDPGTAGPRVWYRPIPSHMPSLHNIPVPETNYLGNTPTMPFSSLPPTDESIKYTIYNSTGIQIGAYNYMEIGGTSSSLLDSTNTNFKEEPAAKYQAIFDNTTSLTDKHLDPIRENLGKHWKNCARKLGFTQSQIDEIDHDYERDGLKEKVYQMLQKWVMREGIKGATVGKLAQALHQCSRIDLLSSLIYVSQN
Excerpt: (§1) The U937 cell line used in the following test examples is from ATCC, with the number of CRL-1593.2, batch number of 63479999, and the culture medium of RPMI-1640+10% FBS. The L929 cell line used in the following test examples is from ATCC, with the number of CCL-1, batch number of 70001022, and the culture medium of MEM+10% FBS+1% PS. The reagents used, and suppliers and article numbers thereof are as follows: RPMI-1640, Gibco, 11875-093; FBS, Gibco, 10099-141; Trypsin-EDTA, Gibco, 25200-072; PS, Gibco, 15140-122; CellTiter Glo, Progema, G7573; DMSO, VWR AMRESCO, 0231-500ML; TNF-α protein (human, recombinant), Peprotech, 300-01A; Q-VD-Oph, MCE, HY-12305; V-shaped bottom plate, Corning, 3894; 384 well low flange white flat bottom polystyrene TC-treated microplates, Corning, 3570; RIPK1, Eurofins, 16-022; MOPS, BDH, 441644J; EDTA, Sigma, E5134; myelin basic protein, Sigma, M1891-25.00 MG; magnesium acetate, Merck, DU008026; ATP (non-radioactive label), Sigma, A-7699; ATP (radioactive label), Hartmann Analytic, DU008054; phosphoric acid, Metlab, DU003000; Z-VAD: Shanghai Twochem Co., Ltd., YA02401.
The compounds to be tested was dissolved in DMSO to prepare a 10 mM stock solution, which was diluted 3.16 times with DMSO into a series of concentration gradients, and then diluted 50 times with MOPS buffer solution (pH 7.0) to prepare a working solution, which were mixed well with 36 nM RIPK1 (final concentration), and 0.33 mg/ml substrate MBP. 10 mM magnesium ions and 155 μM phosphorous 33 isotope-labeled ATP were added to the reaction. The final concentration of DMSO was 2%. After 2 hours of reaction at room temperature, phosphoric acid was added to stop the reaction. The final reaction system was processed and then detected with a liquid scintillation counter.

[3] = tested on: L929 cells; assay: Inhibitory activity against TNF-α induced programmed necrosis of L929 cells (CellTiter-Glo); format: cell-based; conditions: Mus musculus, 30 ng/ml murine TNF-α and 15 μM Z-VAD, 6 hours, survival rate
Excerpt: as §1
The compounds to be tested was dissolved in DMSO and prepared as a 10 mM stock solution, which was diluted 3.16 times with DMSO to form a series of concentration gradients, and then diluted 100 times with culture medium to make a working solution. 10,000 L929 cells/well were seeded on a 384-well white plate, and the corresponding concentration of compound was added to each well to mix with the cells uniformly. At the same time, 30 ng/ml murine TNF-α and 15 μM Z-VAD were added to induce programmed necrosis of the cells. The final concentration of DMSO was 0.2%, and the cells were placed in a 37° C., 5% CO2 incubator for further incubation for 6 hours. CellTiter-Glo reagent was used for detection. After the reaction was fully lysed, the chemiluminescence readings was detected by a microplate reader. The test results were calculated using the formula for survival rate: SR (%)=(RLU compound−RLU blank)/(RLU high control-RLU blank)×100%. The survival rate and the final concentration of the corresponding compound were plotted as a curve, and fitted using a four-parameter model to calculate the inhibitory IC50 of compounds on TNF-α-induced programmed cell necrosis.

IC50 [2] [nM] | SMILES | IC50 [1] [nM] | IC50 [3] [nM]
33 | Nc1nc2cc(-c3cnc4c(c3)C(=O)N(Cc3cc(F)cc(F)c3OC3CC3)CC4)ccn2n1 [Z69] | 1.4 | 3.7
37 | CC(=O)Nc1cn2nc(-c3cnc4c(c3)C(=O)N(Cc3cc(F)cc(F)c3OC3CCOCC3)CC4)ccc2n1 [Z2, N-(6-(6-(3,5-difluoro-2-((tetrahydro-2H-pyran-4-yl)oxy)benzyl)-5-oxo-5,6,7,8-tetrahydro-1,6-naphthyridin-3-yl)imidazo[1,2-b]pyridazin-2-yl)acetamide] | 0.103 | < 2.8
